Experimental data published in patent publication US20050265999A1, “Modulation of 5-HT2 receptors as a treatment for cardiovascular diseases” (Myogen, Inc., priority 2003, published 2005).

Test system: MCIP1 exon 4 promoter luciferase reporter
Experiment: High throughput MCIP1-luciferase reporter screen in H9c2 muscle cells
Type: cell-based, rat
Conditions: screen of 20,000 compounds
Text: A high throughput screen for small molecules that enhance MCIP1 expression in cardiac myocytes. The inventors set out to perform a high throughput screen of a combinatorial small molecule library for compounds capable of increasing MCIP1 expression in cultured H9c2 muscle cells. Toward that end, the inventors used a luciferase reporter gene controlled by the region upstream of exon 4 of the human MCIP1 gene (−874 to +30). This genomic region contains 15 NFAT binding sites and confers calcineurin responsiveness to MCIP1. Transcripts initiated from exon 4 encode a MCIP1 protein with a Mr=28 kD.

Structure (SMILES): Cc1c(-c2ccccc2)nc2sc3c(c2c1N)CCCC3 [Compound 18264, 3-Methyl-2-phenyl-5,6,7,8-tetrahydro-benzo[4,5]thieno[2,3-b]pyridin-4-ylamine]
- stimulation of MCIP1-luciferase expression: approximately two-fold
